Test results published in ChEMBL document CHEMBL1130440, “N-Methyl-2-[4-(2-methylpropyl)phenyl]-3-(3-methoxy-5-methylpyrazin-2-ylsulfamoyl)benzamide; one of a class of novel benzenesulphonamides which are orally-active, ETA-selective endothelin antagonists” (Bioorg Med Chem Lett, 1997).
pIC50: −log10 of the molar value.

Columns and labels:
[1] = target: T1, Endothelin-1 receptor (Homo sapiens, UniProt P25101); experiment: In vitro binding was measured by the displacement of [125I]ET1 from membranes prepared from MEL cells transfected with cloned human ETA receptors; format: cell membranes
T1 sequence (P25101 whole entry): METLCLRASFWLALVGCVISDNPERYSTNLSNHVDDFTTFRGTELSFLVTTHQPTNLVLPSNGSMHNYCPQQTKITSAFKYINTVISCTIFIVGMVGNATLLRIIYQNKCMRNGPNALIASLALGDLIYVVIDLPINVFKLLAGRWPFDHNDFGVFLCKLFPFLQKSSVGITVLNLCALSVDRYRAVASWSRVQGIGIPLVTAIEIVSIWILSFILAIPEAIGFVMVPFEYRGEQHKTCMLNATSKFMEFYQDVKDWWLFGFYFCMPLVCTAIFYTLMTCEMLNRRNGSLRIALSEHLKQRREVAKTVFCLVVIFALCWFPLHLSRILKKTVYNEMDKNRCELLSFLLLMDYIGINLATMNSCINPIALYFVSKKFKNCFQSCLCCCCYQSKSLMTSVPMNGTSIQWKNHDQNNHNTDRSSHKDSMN

[2] = system: Rattus norvegicus; experiment: In vivo mean dose ratio (MDR) activity against the pressor response induced by big ET-1 in alderley park rats at 1 hr after (1 mg/kg) oral administration; format: functional
[3] = system: Rattus norvegicus; experiment: In vivo mean dose ratio(MDR) activity against the pressor response induced by big ET-1 in alderley park rats at 30 min after (2.5 mg/kg) oral administration; format: functional
[4] = system: Rattus norvegicus; experiment: In vivo mean dose ratio(MDR) activity against the pressor response induced by big ET-1 in alderley park rats at 4 hr after (2.5 mg/kg) oral administration; format: functional
[5] = system: Rattus norvegicus; experiment: In vivo mean dose ratio(MDR) activity against the pressor response induced by big ET-1 in alderley park rats at 2 hr after (2.5 mg/kg) oral administration; format: functional

Row | SMILES | pIC50 [1] | MDR [2] | other results
1 | CNC(=O)c1cccc(S(=O)(=O)Nc2ncc(Br)nc2OC)c1-c1ccccc1 | 7.40 | – | –
2 | CNC(=O)c1cccc(S(=O)(=O)Nc2ncc(Br)nc2OC)c1-c1ccc(CC(C)C)cc1 | 8.90 | 2.7 | –
3 | COc1nc(C)cnc1NS(=O)(=O)c1cccc(C(=O)N(C)C)c1-c1ccc(CC(C)C)cc1 | 8.60 | 1.6 | –
4 | CCCCCNC(=O)c1cccc(S(=O)(=O)Nc2ncc(Br)nc2OC)c1-c1ccc(CC(C)C)cc1 | 6.70 | – | –
5 | COc1nc(Br)cnc1NS(=O)(=O)c1cccc(C(N)=O)c1-c1ccccc1 | 7.40 | – | –
6 | COc1nc(Br)cnc1NS(=O)(=O)c1ccccc1-c1ccccc1 | 7.50 | – | –
7 | COc1nc(Br)cnc1NS(=O)(=O)c1cccc(C(N)=O)c1-c1ccc(CC(C)C)cc1 | 9.10 | – | –
8 | COc1nc(C)cnc1NS(=O)(=O)c1cccc(C(N)=O)c1-c1ccc(CC(C)C)cc1 | 9.00 | 2.4 | –
9 | COc1nc(Br)cnc1NS(=O)(=O)c1ccccc1-c1ccc(CC(C)C)cc1 | 7.40 | – | –
10 | COCCNC(=O)c1cccc(S(=O)(=O)Nc2ncc(C)nc2OC)c1-c1ccc(CC(C)C)cc1 | 9.30 | 3.2 | –
11 | COCCNC(=O)c1cccc(S(=O)(=O)Nc2ncc(Br)nc2OC)c1-c1ccc(CC(C)C)cc1 | 8.80 | 2.1 | –
12 | CNC(=O)c1cccc(S(=O)(=O)Nc2ncc(C)nc2OC)c1-c1ccc(CC(C)C)cc1 | 9.30 | 3.2 | Oral activity [3]: 6.2; Oral activity [4]: 4; Oral activity [5]: 3.3
13 | COc1nc(C)cnc1NS(=O)(=O)c1cccc(C(=O)NCCO)c1-c1ccc(CC(C)C)cc1 | 9.20 | 4.2 | –
14 | COc1nc(Br)cnc1NS(=O)(=O)c1cccc(C(=O)N(C)C)c1-c1ccc(CC(C)C)cc1 | 9.00 | – | –
15 | CCCCCNC(=O)c1cccc(S(=O)(=O)Nc2ncc(Br)nc2OC)c1-c1ccccc1 | 8.40 | – | –
